Our source for the viability, T/C values is PubChem BioAssay AID1918996 (Molecular Pharmacology Branch, DTP, NCI, 2023).

By viability, T/C is commonly meant the result in the treated group divided by that in the control group, in per cent.

Values joined by “and” are separate entries in the source; they are usually repeats but may differ in a detail not shown here. Equal entries are not always repeated.
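Also: spheroids also contain HUVEC endothelial cells and human MSC stroma; spheroids exposed to agents for seven days before luminescence viability read.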

The test system of the first assay is 349418-098-R-PDC complex spheroid growth. The experiment in a line: Anticancer human tumor 349418-098-R-PDC patient-derived lung adenocarcinoma cell line growth inhibition [AhR]. Conditions: compound 0.3 µM; stronger effect = lower value. The source says:
Multicellular complex tumor spheroid response to aryl hydrocarbon receptor antagonists in combination with a variety of drugs and investigational agents in selected tumor cell lines
The current study was undertaken to assess response to aryl hydrocarbon receptor antagonists in combination with standard-of-care drugs and investigational agents in solid tumor complex spheroid models. Complex spheroids include a stromal component modeled by human endothelial cells (HUVEC) and fibroblasts modeled by human mesenchymal stem cells (MSCs). The concentration ranges selected for each drug and investigational agent were based upon clinically achievable concentrations if the clinical Cmax of the agent was known.
Compounds. The drugs and investigational agents: BAY 2416964 (NSC825713), GNF351 (NSC835774), CH-223191 (NSC835775), CPI-455 (NSC825282), aza-TdCyd (NSC777586), decitabine (NSC127716), belinostat (NSC758774), entinostat (NSC756642), pevonedistat (NSC761192), tazemetostat (NSC777109), talazoparib (NSC765396), olaparib (NSC753686), selinexor (NSC780203), nedisertib (M3814, NSC802822), bortezomib (NSC756655), venetoclax (NSC766270), doxorubicin (NSC123127), elimusertib (BAY189344, NSC800525), ceralasertib (AZD6738, NSC777638), TAK-243 (NSC785004), alisertib (NSC759677), etoposide (NSC141540), topotecan (NSC609699), eribulin (NSC707389), gemcitabine (NSC613327), carboplatin (NSC241240), cisplatin (NSC119875), and SN-38 (NSC673596) were obtained from the National Cancer Institute (NCI) Developmental Therapeutics Program Chemical Repository (32). The FDA-approved anticancer drug set is available from the Developmental Therapeutics Program at https://dtp.cancer.gov/organization/dscb/obtaining/available plates.htm. […] The stock solutions were prepared in dimethyl sulfoxide (DMSO, Sigma-Aldrich, St. Louis, MO, cat. D2650), except for the platinum compounds which were prepared in saline (Quality Biological, Gaithersburg, MD, cat. 114-055-101), at 800-fold the tested concentration and stored at -70 degrees C prior to their use. All drugs and investigational agents were tested over a range starting from a high concentration at or near the clinical Cmax and decreasing in half-log increments. If the clinical Cmax for an agent had not been determined, the highest concentration tested was 10 microM (Table 1).
Cell Culture. All cells were maintained in an incubator at 37 degrees C and 5% CO2 with 95% humidity. The PDC lines were cultured according to standard operating procedures established by the NCI PDMR (https://pdmr.cancer.gov). Briefly, all PDCs were thawed and cultured in Matrigel-coated flasks prepared with a working solution of 1X Ham's F-12 nutrient mix, without supplementation (Invitrogen, Waltham, MA, cat. 11765054), 100 U/mL penicillin-streptomycin (Invitrogen, cat. 15140122), and 2.5% Matrigel (Corning Inc., Corning, NY, cat. 354248) for the first three passages. All PDCs were cultured in complete DMEM/F-12 media containing advanced DMEM/F-12 (Invitrogen, cat. 12634028), 4.9% defined fetal bovine serum, heat inactivated (HyClone Laboratories Inc., Logan, UT, cat. SH30070.03HI), 389 ng/mL hydrocortisone (Sigma-Aldrich, cat. H4001), 9.7 ng/mL human EGF recombinant protein (Invitrogen, cat. PHG0313), 23.4 microg/mL adenine (Sigma-Aldrich, cat. A2786), 97.3 U/mL penicillin-streptomycin (Invitrogen, cat. 15140122), 1.9 mM L-glutamine (Invitrogen, cat. 25030081), and 9.7 microM Y-27632 dihydrochloride (Tocris Bioscience, Bristol, United Kingdom, cat. 1254). The PDCs were cultured in complete DMEM/F12 media without 10 microM Y-27632 dihydrochloride for at least two passages prior to the screen. The established cell lines NCI-H1341 and […] were cultured in DMEM/F-12, HEPES (Invitrogen, cat. 11330032), 5% defined fetal bovine serum (HyClone Laboratories Inc., cat. SH30070.03), ITS premix universal culture supplement [insulin (5 microg/mL), transferrin (5 microg/mL), and selenious acid (5 ng/mL)] […]
In the case of `O=C(C=Cn1cnc(-c2cc(C(F)(F)F)cc(C(F)(F)F)c2)n1)NNc1cnccn1`, the viability, T/C was 12.2% and 12.3% and 7.91%.

The same assay, now with this note: compound 0.316 µM; stronger effect = lower value.
Turning to `CC1(C)CCC(CN2CCN(c3ccc(C(=O)NS(=O)(=O)c4ccc(NCC5CCOCC5)c([N+](=O)[O-])c4)c(Oc4cnc5[nH]ccc5c4)c3)CC2)=C(c2ccc(Cl)cc2)C1`, the viability, T/C is 102% and 92.4% and 105%.
In the case of `CC1COCCN1c1cc(-c2ccnn2C)c2ccnc(-c3ccn[nH]3)c2n1` (stereo unspecified), the viability, T/C was 18.7% and 15.7% and 14.7%.
For the molecule `COc1cc(C2c3cc4c(cc3C(OC3OC5COC(C)OC5C(O)C3O)C3COC(=O)C23)OCO4)cc(OC)c1O` (stereo unspecified), the viability, T/C is 64.6% and 71% and 38.2%.
Take `COc1cc(Nc2ncc3c(n2)-c2ccc(Cl)cc2C(c2c(F)cccc2OC)=NC3)ccc1C(=O)O`: the viability, T/C is 35.9% and 24.7% and 26.5%.
The same measure, in the same setting: in the case of `COc1cccc2c1C(=O)c1c(O)c3c(c(O)c1C2=O)CC(O)(C(=O)CO)CC3OC1CC(N)C(O)C(C)O1` (stereo unspecified) it was 1.29% and 5.3% and 4.49%.
For `NS(=O)(=O)OCC1CC(n2ccc3c(NC4CCc5ccccc54)ncnc32)CC1O` (stereo unspecified), the viability, T/C was 72.6% and 35.4% and 34.8%.
On the same count and under the same terms, in the case of `Nc1ccccc1NC(=O)c1ccc(CNC(=O)OCc2cccnc2)cc1` it was 65.7% and 89.3% and 84.6%; in that of `Nc1ccn(C2OC(CO)C(O)C2(F)F)c(=O)n1` (stereo unspecified), 4.06% and 10.1% and 12.9%; in that of `Nc1ncn(C2CC(O)C(CO)O2)c(=O)n1` (stereo unspecified), 38.9% and 42.3% and 32.5%.
On the same count and under the same terms, the result for `O=C(C=Cc1cccc(S(=O)(=O)Nc2ccccc2)c1)NO` reads 60.7% and 73.3% and 78.8%.
In the case of `O=C(c1cc(Cc2n[nH]c(=O)c3ccccc23)ccc1F)N1CCN(C(=O)C2CC2)CC1`, the viability, T/C was 102% and 59% and 78.5%.

Staying with this assay, now noted: compound 0.949 µM; stronger effect = lower value.
For `CCN(c1cc(-c2ccc(CN3CCOCC3)cc2)cc(C(=O)NCc2c(C)cc(C)[nH]c2=O)c1C)C1CCOCC1`, the viability, T/C is 99.1% and 66.3% and 69.3%.
The same measure, in the same setting: the result for `O=C(C=Cn1cnc(-c2cc(C(F)(F)F)cc(C(F)(F)F)c2)n1)NNc1cnccn1` reads 6.89% and 8.37% and 7.72%.

Staying with this assay, now noted: compound 1 µM; stronger effect = lower value.
For `CC1(C)CCC(CN2CCN(c3ccc(C(=O)NS(=O)(=O)c4ccc(NCC5CCOCC5)c([N+](=O)[O-])c4)c(Oc4cnc5[nH]ccc5c4)c3)CC2)=C(c2ccc(Cl)cc2)C1`, the viability, T/C is 94.9% and 91.9% and 76.2%.
On the same count and under the same terms, the result for `CC1COCCN1c1cc(-c2ccnn2C)c2ccnc(-c3ccn[nH]3)c2n1` (stereo unspecified) reads 7.38% and 10.8% and 9.29%; that for `COc1cc(C2c3cc4c(cc3C(OC3OC5COC(C)OC5C(O)C3O)C3COC(=O)C23)OCO4)cc(OC)c1O` (stereo unspecified), 22.5% and 31.2% and 21.6%.
On the same count and under the same terms, in the case of `COc1cc(Nc2ncc3c(n2)-c2ccc(Cl)cc2C(c2c(F)cccc2OC)=NC3)ccc1C(=O)O` it was 47% and 31.1% and 35.9%.
Same read-out and setting: the result for `COc1cccc2c1C(=O)c1c(O)c3c(c(O)c1C2=O)CC(O)(C(=O)CO)CC3OC1CC(N)C(O)C(C)O1` (stereo unspecified) reads 0.27% and 0.62% and 0.79%; that for `NS(=O)(=O)OCC1CC(n2ccc3c(NC4CCc5ccccc54)ncnc32)CC1O` (stereo unspecified), 27.8% and 25.5% and 21.3%.
With `Nc1ccccc1NC(=O)c1ccc(CNC(=O)OCc2cccnc2)cc1`, the viability, T/C was 48.9% and 69.2% and 44.6%.
Turning to `Nc1ccn(C2OC(CO)C(O)C2(F)F)c(=O)n1` (stereo unspecified), the viability, T/C was 5.57% and 9.29% and 10.5%.
Regarding `Nc1ncn(C2CC(O)C(CO)O2)c(=O)n1` (stereo unspecified), the viability, T/C is 32.3% and 31.3% and 26.1%.
On the same count and under the same terms, the result for `O=C(C=Cc1cccc(S(=O)(=O)Nc2ccccc2)c1)NO` reads 48.6% and 42.6% and 41.5%.
Still for that read-out and setting: the result for `O=C(c1cc(Cc2n[nH]c(=O)c3ccccc23)ccc1F)N1CCN(C(=O)C2CC2)CC1` reads 92.2% and 95.7% and 68.9%.

The same assay, now with this note: compound 3 µM; stronger effect = lower value.
For the molecule `CCN(c1cc(-c2ccc(CN3CCOCC3)cc2)cc(C(=O)NCc2c(C)cc(C)[nH]c2=O)c1C)C1CCOCC1`, the viability, T/C was 94% and 69.9% and 88.5%.
With `O=C(C=Cn1cnc(-c2cc(C(F)(F)F)cc(C(F)(F)F)c2)n1)NNc1cnccn1`, the viability, T/C is 4.34% and 6.5% and 7.38%.

Staying with this assay, now noted: compound 3.16 µM; stronger effect = lower value.
For `CC1(C)CCC(CN2CCN(c3ccc(C(=O)NS(=O)(=O)c4ccc(NCC5CCOCC5)c([N+](=O)[O-])c4)c(Oc4cnc5[nH]ccc5c4)c3)CC2)=C(c2ccc(Cl)cc2)C1`, the viability, T/C is 106% and 100% and 68.8%.
Regarding `COc1cc(C2c3cc4c(cc3C(OC3OC5COC(C)OC5C(O)C3O)C3COC(=O)C23)OCO4)cc(OC)c1O` (stereo unspecified), the viability, T/C was 11.2% and 15.4% and 15.3%.
For `COc1cc(Nc2ncc3c(n2)-c2ccc(Cl)cc2C(c2c(F)cccc2OC)=NC3)ccc1C(=O)O`, the viability, T/C is 43% and 33.3% and 42.7%.
The same measure, in the same setting: in the case of `COc1cccc2c1C(=O)c1c(O)c3c(c(O)c1C2=O)CC(O)(C(=O)CO)CC3OC1CC(N)C(O)C(C)O1` (stereo unspecified) it was 2.73% and 2.97% and 3.14%.
